Results taken from patent US20200299777A1, “Methods for Resensitizing p53-Null Cells to Cancer Chemotherapy” (UNIVERSITY OF SOUTH CAROLINA, priority 2019, published 2020).

Key:
TP53-WT hESCs [1] = assay: Cell viability assay (resazurin), TP53 wild-type human ES cells; type: cell-based; details: for sensitivity of TP53-WT hESCs (cell viability): all tested concentrations
Method: (§1) Human H9 embryonic stem cells (ESCs) (Lot No.: WIC-WA09-MB-001, WiCell, Wisconsin) and derivatives were maintained at 37° C., 5% CO2 in chemical-defined medium TeSR-E8 medium (Stemcell Tech.) with 100 U/ml penicillin & 100 μg/ml streptomycin (Gibco) on Matrigel-coated (# CB40230A, Corning) tissue culture vessels. Authentication of H9 ESCs were performed by WiCell. ESCs were passaged every 4 to 6 days to maintain sub-confluence using 0.5 mM EDTA as described previously. Human colon cancer RKO cells (kindly given by Dr. Bert Vogelstein) and its derivatives were maintained at 37° C., 5% CO2 in McCoy's 5A media (Fisher) supplemented with 10% FBS and 100 U/ml penicillin & 100 μg/ml streptomycin (Gibco). RKO cells were passaged every 3 to 4 days to maintain sub-confluence (authentication of RKO cell line was performed by JHU-GRCF Biorepository & Cell Center). Cells were screened for mycoplasma before experiments using a MycoAlert™ Mycoplasma Detection Kit (Lonza).
(§2) NCI Approved Oncology Drug Set IV containing 127 FDA-approved anticancer drugs was obtained from the NCI under a material transfer agreement. TP53 knockout or wild-type human ES cells were seeded in 96-well microplates in E8 medium, with 6,000 cells per well that would reach about 85% confluent at the end of the assay. Human ES cells were plated one day before treatment with a 7-point two-fold dilution series (starting with 10 μM) of each compound or solvent (dimethyl sulfoxide, DMSO or Dimethylformamide, DMF) control. After 72 hours incubation, cells were stained with 35 μM resazurin (Sigma), then quantification of fluorescent signal intensity was performed on Thermo Fluorskan™ Ascent plate reader at excitation and emission wavelengths of 544/590 nm. Data were normalized to the solvent control (DMSO or DMF) group. The area under a curve (AUC) was calculated using auc function (flux package) in R. The two-side t-test was performed with tlest function in R. The hierarchical clustering analysis of drugs AUC pattern in different samples was carried out using heatmap.2 function (gplots package) in R (All R code available). Viability response curves of Cisplatin and Paclitaxel on TP53-KO hESCs or RKO cells were generated using drc package (Analysis of Dose-Response Curves) in R.

TP53-KO hESCs [2] = assay: Cell viability assay (resazurin), TP53 knockout human ES cells; type: cell-based; details: for sensitivity/resistance of TP53-KO hESCs (cell viability): 7-point two-fold dilution starting with 10 μM
Method: as §1
TP53 knockout hESCs and RKO cells were generated using CRISPR/Cas9 as described previously with minor modifications. Briefly, human codon-optimized Streptococcus pyogenes wild type Cas9 (Cas9-2A-GFP) was obtained from Addgene (#44719). Chimeric guide RNA expression cassettes with different small guide RNA, TP53_Up_sgRNA: 5′-[…]-3′ (SEQ ID NO: 1) and TP53_Down_sgRNA: 5′-[…]-3′ (SEQ ID NO: 2) were ordered as gBlock. These gBlocks were amplified by PCR using primers: gBlock_Amplifying_F: 5′-[…]-3′ (SEQ ID NO: 3) and gBlock_Amplifying_R: 5′-[…]-3′ (SEQ ID NO: 4). The PCR product was purified by Agencourt Ampure XP PCR Purification beads according to manufacturer's protocol (Beckman Coulter). 1.5 μg of Cas9 plasmid and 0.5 μg of each gRNAgBlock were co-transfected into hESCs via Lipofectamine™ 3000 (Thermo Fisher Scientific). […] For TP53-KO RKO cells, single clones were picked up and validated by PCR and Western blotting.
as §2

TP53-KO RKO cells [3] = assay: Cisplatin viability response on TP53 knockout RKO colon cancer cells; type: cell-based, human
Method: as §1, with “RKO cells were passaged every 3 to 4 days to maintain sub-confluence (authentication of RKO cell line was performed by JHU-GRCF Biorepository & Cell Center). Cells were screened for mycoplasma before experiments using a MycoAlert™ Mycoplasma Detection Kit (Lonza).” left out
NCI Approved Oncology Drug Set IV containing 127 FDA-approved anticancer drugs was obtained from the NCI under a material transfer agreement. […] After 72 hours incubation, cells were stained with 35 μM resazurin (Sigma), then quantification of fluorescent signal intensity was performed on Thermo Fluorskan™ Ascent plate reader at excitation and emission wavelengths of 544/590 nm. […] The area under a curve (AUC) was calculated using auc function (flux package) in R. The two-side t-test was performed with tlest function in R. The hierarchical clustering analysis of drugs AUC pattern in different samples was carried out using heatmap.2 function (gplots package) in R (All R code available). […]

TP53-KO hESCs [4] = assay: Paclitaxel and Cisplatin drug synergy experiment on TP53-KO hESCs; type: cell-based, human; details: low concentration Paclitaxel plus Cisplatin matrix, 72 hours, ZIP synergy model
Method: (§3) A Paclitaxel and Cisplatin drug matrix (12×8) in a 96-well plate was made for drug synergy experiment. Paclitaxel on row was an 11-point two-fold dilution series with starting concentration of 0.0016 μM, and Cisplatin on column was a 7-point two-fold dilution series with starting concentration of 2 μM, 5000 TP53-KO hESCs per well or 2000 TP53-KO RKO cells per well were plated on three 96-well plates one day before treatment with Paclitaxel and Cisplatin drug matrix. After 72 hours incubation for TP53-KO hESCs and 96 hours incubation for TP53-KO RKO cells, cells were stained with 35 μM resazurin (Sigma), then quantification of fluorescent signal intensity was performed on Thermo Fluorskan™ Ascent plate reader at excitation and emission wavelengths of 544/590 nm. The drug synergy scores were evaluated using ZIP model (Zero Interaction Potency model) in synergyfinder package.

TP53-KO RKO cells [5] = assay: Paclitaxel and Cisplatin drug synergy experiment on TP53-KO RKO cells; type: cell-based, human; details: Paclitaxel plus Cisplatin matrix, 96 hours, two TP53-KO clones, ZIP synergy model
Method: as §3

[6] = test system: ZNF207/BuGZ knockout TP53-KO hESCs; assay: Validation of ZNF207/BuGZ knockout in Cas9-expressing TP53-KO hESCs treated with Cisplatin (qPCR of knockout locus); type: cell-based, human
Method: Human TP53 knockout embryonic stem cells were infected at low MOI by viruses produced using pCLIP-Cas9-Nuclease-EFS-Blast (TransOMIC) and selected using blastcidin (10 μg/ml). The stable Cas9-expressing TP53-KO hESCs were infected with viruses with two sgRNAs against gene ZNF207/BuGZ (# TEDH-1090944, TransOMIC) or control gene OR1C1 (# TEDH-1055091, TransOMIC). These two sgRNAs could induce fragment deletion. We treated these cells with either 200 nM Cisplatin or vehicle DMF. We used realtime quantitative PCR to quantify the ZNF207 knockout locus, using gRNA flanking primers that only amplify when the intervening sequence has been deleted.
The relative percentage of ZNF207 or OR1C1 knockout cell number was defined as:
2^−ΔCT(Gene−LINE)/2^−ΔCT(Gene−LINE) at Day0.

TP53-WT hESCs [7] = assay: Cell viability assay (resazurin), TP53 wild-type human ES cells; type: cell-based; details: 200 nM
[8] = 72 hours, resazurin, low concentrations

Structure (SMILES) | sensitivity of TP53-WT hESCs (cell viability) (TP53-WT hESCs [1]; 72 hours, resazurin) | sensitivity/resistance of TP53-KO hESCs (cell viability) (TP53-KO hESCs [2]; 72 hours, resazurin) | sensitivity of TP53-WT hESCs at low concentration (cell viability) (TP53-WT hESCs [1]; 72 hours, resazurin) | also measured
CCCCCOC(=O)Nc1nc(=O)n([C@@H]2O[C@H](C)[C@@H](O)[C@H]2O)cc1F [Capecitabine] | resistant | resistant |  | 
N.N.O=C([O-])C1(C(=O)[O-])CCC1.[Pt+2] [Carboplatin] |  | resistant | very sensitive | 
N.N.[Cl][Pt][Cl] [Cisplatin] |  | resistant | very sensitive | resistance of TP53-KO hESCs at the optimal concentration (TP53-KO hESCs [2]; 200 nM): very resistant; resistance of TP53-KO RKO cells compared to TP53-WT RKO cells (TP53-KO RKO cells [3]): resistant; inhibition of Cisplatin on TP53-KO hESCs in combination with Paclitaxel (TP53-KO hESCs [4]): increased; inhibition of Cisplatin on TP53-KO RKO cells in combination with Paclitaxel (TP53-KO RKO cells [5]): increased greatly; sensitivity of ZNF207/BuGZ knockout TP53-KO hESCs ([6]; 200 nM vs vehicle DMF, two more TP53-KO hESC lines): more sensitive; depletion of ZNF207/BuGZ knockout cells versus DMF vehicle control ([6]; 200 nM, ten days, qPCR at day 6 and 10): depleted faster; sensitivity of TP53-WT hESCs at the optimal concentration (TP53-WT hESCs [7]): very sensitive
CC(=O)O[C@@]12CO[C@@H]1C[C@H](O)[C@@]1(C)C(=O)[C@H](O)C3=C(C)[C@@H](OC(=O)[C@H](O)[C@@H](NC(=O)OC(C)(C)C)c4ccccc4)C[C@@](O)([C@@H](OC(=O)c4ccccc4)[C@H]21)C3(C)C [Docetaxel] | sensitive | sensitive |  | 
O=c1[nH]cc(F)c(=O)[nH]1 [Fluorouracil] |  |  |  | sensitivity of TP53-WT hESCs at high concentrations (TP53-WT hESCs [1]; 72 hours, resazurin, high concentrations): sensitive; resistance of TP53-WT hESCs at low concentrations (TP53-WT hESCs [1]; [8]): resistant; resistance of TP53-KO hESCs at low concentrations (TP53-KO hESCs [2]; [8]): resistant
CCc1c2c(nc3ccc(OC(=O)N4CCC(N5CCCCC5)CC4)cc13)-c1cc3c(c(=O)n1C2)COC(=O)[C@]3(O)CC [Irinotecan] |  | resistant |  | sensitivity of TP53-WT hESCs at low concentration (0.16 μM) (TP53-WT hESCs [1]; 72 hours, resazurin): very sensitive
COc1ccc(C2=N[C@@H](c3ccc(Cl)cc3)[C@@H](c3ccc(Cl)cc3)N2C(=O)N2CCNC(=O)C2)c(OC(C)C)c1 [Nutlin-3a] |  |  |  | growth inhibitory effect on TP53-WT hESCs (TP53-WT hESCs [1]; very low concentrations): severely growth arrested
O=C(c1cc(Cc2n[nH]c(=O)c3ccccc23)ccc1F)N1CCN(C(=O)C2CC2)CC1 [Olaparib] |  | resistant | very sensitive | 
O=C1[O][Pt]2([NH][C@@H]3CCCC[C@H]3[NH]2)[O]C1=O [Oxaliplatin] |  | resistant |  | sensitivity of TP53-WT hESCs at low concentration (0.16 μM) (TP53-WT hESCs [1]; 72 hours, resazurin): very sensitive
CC(=O)O[C@H]1C(=O)[C@@]2(C)[C@H]([C@H](OC(=O)c3ccccc3)[C@]3(O)C[C@H](OC(=O)[C@H](O)[C@@H](NC(=O)c4ccccc4)c4ccccc4)C(C)=C1C3(C)C)[C@]1(OC(C)=O)CO[C@@H]1C[C@@H]2O [Paclitaxel] | sensitive | sensitive |  | 
